According to the SangsterLogP compilation:
One block for each molecule: values may come before it.

Columns and labels:
[1] = method code SF-HPLC, from DOI: 10.1002/jlac.1995199512305
[2] = method code SF, from DOI: 10.1021/jm00167a034, PMID: 2329572; settings: pH 7.4
[3] = method code SF-AS, from PMID: 640322; settings: pH 4.0
[4] = method code SF-GLC, from DOI: 10.1021/es60155a010
[5] = method code SF-AS, from DOI: 10.1211/0022357001777513, PMID: 11186244; settings: pH 7.3
[6] = not given; remark: listed apart in the source
[7] = from Jayashree, Bs.; Sahu, A.; MM, S.; Venugopala, K. (2006). Synthesis, characterization and determination of partition coefficient of some triazolo thiadiazinyl chlorocoumarin derivatives for their …; settings: pH 7.4
[8] = not given; remark: listed apart in the source
[9] = method code SF-HPLC, from DOI: 10.1023/a:1015956705293, PMID: 3244625
[10] = not given; remark: listed apart in the source
[11] = not given; remark: listed apart in the source
[12] = pH 7.4
[13] = method code SF, from DOI: 10.1021/jm020886c, PMID: 12852752; settings: pH 7.4
[14] = not given; remark: listed apart in the source
[15] = method code SF-AS, from DOI: 10.1002/etc.5620180606

SMILES: CC(C)C[N+](=O)[O-]
logP: 1.4

SMILES: CC(C)CN(N=O)C(N)=O
logD [3]: 1.04

SMILES: CC(C)c1ccc(OP(=O)(Oc2ccccc2)Oc2ccccc2)cc1
logP [4]: 5.31

SMILES: OCC(O)COc1ccc(-c2c3nc(c(-c4ccc(OCC(O)CO)cc4)c4ccc([nH]4)c(-c4ccc(OCC(O)CO)cc4)c4nc(c(-c5ccc(OCC(O)CO)cc5)c5ccc2[nH]5)C=C4)C=C3)cc1 (stereo unspecified)
logD [5]: 4.93

SMILES: Ic1ccc2nc(-c3ccc(-c4ncon4)cc3)cn2c1
logP [6]: 3.12

SMILES: FC(F)(Cl)Cl
logP [10]: 1.93

SMILES: CCC(C)[N+](=O)[O-] (stereo unspecified)
logP: 1.2

SMILES: O=C(CCc1cccc2c1OCO2)N1CCC2(CC1)C(=O)NCN2c1ccccc1
logD [12]: 2.8

SMILES: FCC(F)(Cl)Cl
logP [10]: 1.51

SMILES: OCC(O)COc1ccccc1-c1c2nc(c(-c3ccccc3OCC(O)CO)c3ccc([nH]3)c(-c3ccccc3OCC(O)CO)c3nc(c(-c4ccccc4OCC(O)CO)c4ccc1[nH]4)C=C3)C=C2 (stereo unspecified)
logD [5]: 4.67

SMILES: Ic1ccc2nc(-c3ccc(-c4cnco4)cc3)cn2c1
logP [6]: 3.64

SMILES: Oc1ccccc1-c1c2nc(c(-c3ccccc3O)c3ccc([nH]3)c(-c3ccccc3O)c3nc(c(-c4ccccc4O)c4ccc1[nH]4)C=C3)C=C2
logD [5]: 4.58

SMILES: CC(C)(C)c1ccc(OP(=O)(Oc2ccccc2)Oc2ccccc2)cc1
logP [4]: 5.12

SMILES: O=C(Cc1c[nH]c2ccc(Br)cc12)N1CCN(c2ccc([N+](=O)[O-])c3nonc23)CC1
logD [12]: 3

SMILES: Nc1c(Oc2ccccc2)c(Oc2ccccc2)c(N)c2c1C(=O)c1ccccc1C2=O
logP [15]: 5.19

SMILES: FC(F)(Cl)C(F)(F)Cl
logP [10]: 2.66

SMILES: O=[N+]([O-])c1cc(S(=O)(=O)Nc2ccccc2)ccc1Nc1ccccc1
logP [15]: 3.62

SMILES: COc1cc([N+](=O)[O-])cc(CC(=O)N2CCC(n3c(=O)[nH]c4ccccc43)CC2)c1OC
logD [12]: 2.4

SMILES: CN(C)c1ccc(-c2cn3cc(I)ccc3n2)cc1
logP [6]: 4.03

SMILES: Ic1ccc2nc(-c3ccc(-c4cc[nH]n4)cc3)cn2c1
logP [6]: 3.2

SMILES: CCCCC(CC)COP(=O)(OCC(CC)CCCC)OCC(CC)CCCC (stereo unspecified)
logP [4]: 4.23

SMILES: Cc1ccc(OP(=O)(Oc2ccc(C)cc2)Oc2ccc(C)cc2)cc1
logP [4]: 5.11

SMILES: CCN(N=O)C(N)=O
logD [3]: -0.15

SMILES: CC(C)CCCCCCCOP(=O)(Oc1ccccc1)Oc1ccccc1
logP [4]: 5.44

SMILES: Cc1c(O)c(C#N)c(C)c(N=Nc2ccc(Cl)c(Cl)c2)c1O
logP [15]: 3.74

SMILES: COc1cc([N+](=O)[O-])cc(C=CC(=O)N2CCC3(CC2)C(=O)NCN3c2ccccc2)c1OC
logD [12]: 3

SMILES: Oc1cccc(-c2c3nc(c(-c4cccc(O)c4F)c4ccc([nH]4)c(-c4cccc(O)c4F)c4nc(c(-c5cccc(O)c5F)c5ccc2[nH]5)C=C4)C=C3)c1F
logD [5]: 4.6

SMILES: O=C(OCc1ccc2snnc2c1)N1CCC2(CC1)C(=O)NCN2c1ccccc1
logD [12]: 3.4

SMILES: CCCN(N=O)C(N)=O
logD [3]: 0.3

SMILES: OCC(O)COc1c(F)ccc(-c2c3nc(c(-c4ccc(F)c(OCC(O)CO)c4F)c4ccc([nH]4)c(-c4ccc(F)c(OCC(O)CO)c4F)c4nc(c(-c5ccc(F)c(OCC(O)CO)c5F)c5ccc2[nH]5)C=C4)C=C3)c1F (stereo unspecified)
logD [5]: 2.51

SMILES: CC(C)[N+](=O)[O-]
logP: 0.8

SMILES: FC(F)(F)C(F)(F)Cl
logP [10]: 2.23

SMILES: CCCCCC[N+](=O)[O-]
logP: 2.7

Further lines, results first:

logP [1]: 0.79
SMILES: Cc1cn(C2CC(N=[N+]=[N-])C(COP(=O)(OCC3OC(n4cc(C)c(=O)[nH]c4=O)CC3N=[N+]=[N-])C(O)c3cccc([N+](=O)[O-])c3)O2)c(=O)[nH]c1=O (stereo unspecified)

logD [2]: 0.86
SMILES: Cc1cn([C@H]2C[C@H](N=[N+]=[N-])[C@@H](COC(=O)C3=CN(C)C=CC3)O2)c(=O)[nH]c1=O

logD [7]: 1.51
SMILES: O=c1oc2ccc(Cl)cc2cc1C1=Nn2c(nnc2-c2ccc(Br)cc2)SC1

logP [8]: 3.05
SMILES: CCOCn1c(S)nc(=O)c(CC)c1Sc1ccccc1

logP [9]: 2.58
SMILES: COC(=O)CCC(=O)OCC(=O)C1(O)CCC2C3CCC4=CC(=O)CCC4(C)C3C(O)CC21C (stereo unspecified)

logP [11]: 4.79
SMILES: CCCN1C=CCC(C(=O)OC2CCC3C4CCc5cc(O)ccc5C4CC23C)=C1 (stereo unspecified)

logD [7]: 1.33
SMILES: O=c1oc2ccc(Cl)cc2cc1C1=Nn2c(COc3ccc(Cl)cc3)nnc2SC1

logD [13]: 1.13
SMILES: O=c1[nH]c2c(O)ccc(CCNCCCS(=O)(=O)CCOCCc3ccccc3)c2s1

logP [11]: 5.39
SMILES: CC12CC3c4ccc(O)cc4CCC3C1CCC2OC(=O)C1=CN(Cc2ccccc2)C=CC1 (stereo unspecified)

logD ([9]; pH 2.5): 2.11
SMILES: CC12CCC(=O)C=C1CCC1C2C(O)CC2(C)C1CCC2(O)C(=O)COC(=O)CCC(=O)O (stereo unspecified)

logD [13]: 1.24
SMILES: CN(CCCNCCc1ccc(O)c2[nH]c(=O)sc12)S(=O)(=O)CCCOCCc1ccccc1

logP [8]: 2.35
SMILES: CCOCn1c(Cc2ccccc2)c(C(C)C)c(=O)[nH]c1=O

logP [14]: 7.1
SMILES: CCCCCCCCCCOc1ccc(OC(=O)Cn2ccc3cc(C(=O)O)ccc32)cc1

logD [2]: 1.25
SMILES: CC1=C(/C=C/C(C)=C/C=C/C(C)=C/C(=O)OC[C@H]2O[C@@H](n3cc(C)c(=O)[nH]c3=O)C[C@@H]2N=[N+]=[N-])C(C)(C)CCC1

logD [7]: 1.53
SMILES: O=c1oc2ccc(Cl)cc2cc1C1=Nn2c(nnc2-c2ccccc2Cl)SC1

logP [1]: 0.49
SMILES: Cc1cn(C2CC(N=[N+]=[N-])C(COP(=O)(OCC3OC(n4cc(C)c(=O)[nH]c4=O)CC3N=[N+]=[N-])C(O)c3ccc(C#N)cc3)O2)c(=O)[nH]c1=O (stereo unspecified)

logD [13]: 3.53
SMILES: CN(CCCSCCOCCc1ccccc1)CCc1ccc(O)c2[nH]c(=O)sc12

logP [14]: 3.2
SMILES: O=C(Cn1ccc2cc(C(=O)O)ccc21)Oc1ccc(-c2ccccc2)cc1

logP [14]: 2.3
SMILES: NC(=O)c1ccc2c(ccn2CC(=O)Oc2ccccc2-c2ccccc2)c1

logD [2]: 0.34
SMILES: Cc1cn([C@H]2C[C@H](N=[N+]=[N-])[C@@H](COC(=O)CN3CCOCC3)O2)c(=O)[nH]c1=O

logP [9]: 2.79
SMILES: C[C@]12CCC(=O)C=C1CC[C@@H]1[C@@H]2[C@@H](O)C[C@@]2(C)[C@H]1CC[C@]2(O)C(=O)COC(=O)CCCCCO

logP [11]: 4.89
SMILES: CC12CC3c4ccc(O)cc4CCC3C1CCC2OC(=O)C1=CN(CCCO)C=CC1 (stereo unspecified)

logP [1]: 0.79
SMILES: Cc1cn(C2CC(N=[N+]=[N-])C(COP(=O)(OCC3OC(n4cc(C)c(=O)[nH]c4=O)CC3N=[N+]=[N-])C(O)c3ccccc3[N+](=O)[O-])O2)c(=O)[nH]c1=O (stereo unspecified)

logP [11]: 4.66
SMILES: CCN1C=CCC(C(=O)OC2CCC3C4CCc5cc(O)ccc5C4CC23C)=C1 (stereo unspecified)

logD [13]: 1.34
SMILES: O=c1[nH]c2c(O)ccc(CCNCCCS(=O)(=O)CCCOCc3ccccc3)c2s1

logD [7]: 1.18
SMILES: O=c1oc2ccc(Cl)cc2cc1C1=Nn2c(nnc2-c2ccncc2)SC1

logP [8]: 3.23
SMILES: CCc1c(Sc2ccccc2)n(COCc2ccccc2)c(=O)[nH]c1=O

logD ([9]; pH 3.3): 3.26
SMILES: C[C@]12CCC(=O)C=C1CC[C@@H]1[C@@H]2[C@@H](O)C[C@@]2(C)[C@H]1CC[C@]2(O)C(=O)COC(=O)CCCCCC(=O)O

logD [7]: 1.49
SMILES: O=c1oc2ccc(Cl)cc2cc1C1=Nn2c(nnc2-c2ccc(Cl)cc2)SC1

logD [2]: 0.52
SMILES: Cc1cn(C2CC(N=[N+]=[N-])C(COC(=O)C(N)Cc3ccccc3)O2)c(=O)[nH]c1=O (stereo unspecified)

logD [3]: -0.3
SMILES: NC(=O)N(CCCN(N=O)C(N)=O)N=O

logP [1]: 0.73
SMILES: Cc1cn(C2CC(N=[N+]=[N-])C(COP(=O)(OCC3OC(n4cc(C)c(=O)[nH]c4=O)CC3N=[N+]=[N-])C(O)c3c([N+](=O)[O-])cccc3[N+](=O)[O-])O2)c(=O)[nH]c1=O (stereo unspecified)

logP [15]: 4.08
SMILES: CC(=O)CCC(C#N)Nc1ccc(N=Nc2nc3ccc([N+](=O)[O-])cc3s2)cc1 (stereo unspecified)

logP [8]: 2.78
SMILES: CCOCn1c(Cc2cc(C)cc(C)c2)c(CC)c(=O)[nH]c1=O

logP [15]: 4.44
SMILES: COc1cc(/N=N/c2c(Br)cc([N+](=O)[O-])cc2[N+](=O)[O-])c(NC(C)=O)cc1N(CCOC(C)=O)CCOC(C)=O

logP [9]: 2.03
SMILES: CN(C)C(=O)CCC(=O)OCC(=O)[C@@]1(O)CC[C@H]2[C@@H]3CCC4=CC(=O)CC[C@]4(C)[C@H]3[C@@H](O)C[C@@]21C

logD [13]: 3.44
SMILES: CC(C)(CNCCc1ccc(O)c2[nH]c(=O)sc12)CSCCOCCc1ccccc1

logP [11]: 5.07
SMILES: CCCCCCN1C=CCC(C(=O)OC2CCC3C4CCc5cc(O)ccc5C4CC23C)=C1 (stereo unspecified)

logD [2]: 0.96
SMILES: Cc1cn([C@H]2C[C@H](N=[N+]=[N-])[C@@H](COC(=O)CN3CCN(c4ccccc4)CC3)O2)c(=O)[nH]c1=O

logP [14]: 3.1
SMILES: O=C(Cn1ccc2cc(C(=O)O)ccc21)Oc1cccc(-c2ccccc2)c1

logP [1]: 0.79
SMILES: Cc1cn(C2CC(N=[N+]=[N-])C(COP(=O)(OCC3OC(n4cc(C)c(=O)[nH]c4=O)CC3N=[N+]=[N-])C(O)c3ccccc3)O2)c(=O)[nH]c1=O (stereo unspecified)

logP [14]: 5.5
SMILES: CCCCCCCCc1ccc(OC(=O)Cn2ccc3cc(C(N)=O)ccc32)cc1

logP [8]: 2.11
SMILES: CCOCn1c(Sc2ccccc2)c(CC)c(=O)[nH]c1=O
